Assay [1] concerns Hypoxia response element (HRE)-luciferase reporter U2OS-HRE cells. Kind of assay: HRE-luciferase reporter assay in U2OS-HRE cells. It is filed as cell-based, Human. Conditions: different concentrations and times. How it is done: Luciferase assay. Assay was performed as described. Briefly, cells (HeLa and U2OS) stably expressing an HRE-luciferase reporter were treated for the indicated times with compounds. Cells were harvested in passive lysis buffer (Promega) and subjected to three freeze-thaw cycles. The soluble lysate fraction was used for assays, performed according to the manufacturer’s instructions (Promega) using a Berthold Lumat LB 9507 Luminometer. Results were normalized for protein concentration, and reported as mean ± s.e.m. from three biological replicates.

In assay [2] the target is T1, V30CB (Homo sapiens, UniProt P40337).
T1 construct: N-terminally His6-tagged VHL (1–213), ElonginC (17–112) and ElonginB (1–104) were co-expressed; His6 (N, cleaved yes); made in house; host or cells: Escherichia coli BL21(DE3)
Kind of assay: Size-exclusion chromatography (SEC) of complex formation with V30CB. It is filed as binding. As for the experimental part: Protein expression and purification. Human proteins VHL (UniProt accession number: P40337), ElonginC (Q15369), and ElonginB (Q15370) were used for all protein expression. The short-isoform-containing VCB complex (V19CB) was expressed, purified and stored as described previously. For expression of the long-isoform-containing VCB complex (V30CB), N-terminally His6-tagged VHL (1–213), ElonginC (17–112) and ElonginB (1–104) were co-expressed in Escherichia coli BL21(DE3) at 20 °C for 18 h using 0.5 mM isopropyl β-D-1-thiogalactopyranoside (IPTG). E. coli cells were resuspended in binding buffer (50 mM HEPES, pH 8.0, 500 mM NaCl, 10 mM imidazole and 5 mM β-mercaptoethanol), lysed using a pressure cell homogenizer (Stansted Fluid Power), and lysate clarified by centrifugation. The supernatant was loaded onto a HisTrap FF affinity column (GE Healthcare) equilibrated with binding buffer, and bound protein was eluted using an imidazole gradient. […]
Size-exclusion chromatography (SEC). […] The oligomeric state of the VCB complex in solution was analyzed by gel filtration in a buffer containing 20 mM Bis-Tris (pH 7), 150 mM NaCl and 1 mM 1,4-dithiothreitol (DTT) using a Superdex 200 Increase 10/300 GL column (GE Healthcare) calibrated with globular proteins of known molecular weight (GE Healthcare, 28-4038-41/42). […] Peak elution was monitored using ultraviolet absorbance at 280 nm.
(In general: SEC sorts molecules by how far they enter the pores of the column.)

For assay [3], the target named is pVHL30 (Homo sapiens, UniProt P40337). Kind of assay: Isothermal titration calorimetry (ITC) against VCB complex with long VHL isoform (V30CB). In kind it is binding. The arrangement: N-terminally His6-tagged VHL (1–213), ElonginC (17–112) and ElonginB (1–104) were co-expressed; His6 (N, cleaved yes); made in house; host or cells: Escherichia coli BL21(DE3). As for the experimental part:
Protein expression and purification. Human proteins VHL (UniProt accession number: P40337), ElonginC (Q15369), and ElonginB (Q15370) were used for all protein expression. The short-isoform-containing VCB complex (V19CB) was expressed, purified and stored as described previously. For expression of the long-isoform-containing VCB complex (V30CB), N-terminally His6-tagged VHL (1–213), ElonginC (17–112) and ElonginB (1–104) were co-expressed in Escherichia coli BL21(DE3) at 20 °C for 18 h using 0.5 mM isopropyl β-D-1-thiogalactopyranoside (IPTG). E. coli cells were resuspended in binding buffer (50 mM HEPES, pH 8.0, 500 mM NaCl, 10 mM imidazole and 5 mM β-mercaptoethanol), lysed using a pressure cell homogenizer (Stansted Fluid Power), and lysate clarified by centrifugation. The supernatant was loaded onto a HisTrap FF affinity column (GE Healthcare) equilibrated with binding buffer, and bound protein was eluted using an imidazole gradient. The His6 tag was removed using thrombin protease (Sigma), and the untagged complex was dialyzed into binding buffer. V30CB was then loaded onto the HisTrap FF column a second time, allowing impurities to bind as the complex eluted without binding. The flow-through was dialyzed using a low-salt buffer (20 mM HEPES, pH 8.0, 25 mM NaCl and 1 mM DTT) and then loaded onto a Resource Q anion exchange column (GE Healthcare); bound protein was eluted across a linear NaCl gradient. V30CB was then additionally purified by size-exclusion chromatography using a Superdex-75 16/600 column (GE Healthcare) equilibrated with 20 mM HEPES, pH 7.5, 100 mM sodium chloride and 1 mM TCEP. All chromatography purification steps were performed using Äkta FPLC purification systems (GE Healthcare).
Isothermal titration calorimetry (ITC). Titrations were performed on an ITC200 micro-calorimeter (GE Healthcare). […] The final DMSO concentration was 0.15% v/v. VCB protein experiments were carried out in a buffer containing 20 mM Bis-tris propane, 150 mM NaCl, 1 mM TCEP, 0.15% v/v DMSO, pH 7.4. The titrations consisted of 19 injections of 2 µL compounds solution (150 µM, in the syringe) at a rate of 0.5 µl s^−1 at 120 s time intervals into the VCB protein solution (20 µM, in the cell). An initial injection of compound solution (0.4 µL) was made and discarded during data analysis. All experiments were performed at 25 °C, whilst stirring the syringe at 600 rpm. The data were fitted to a single binding site model to obtain the stoichiometry n, the dissociation constant K d and the enthalpy of binding ΔH using the Microcal LLC ITC200 Origin software provided by the manufacturer.

Chain of pVHL30 (P40337 whole entry, canonical isoform): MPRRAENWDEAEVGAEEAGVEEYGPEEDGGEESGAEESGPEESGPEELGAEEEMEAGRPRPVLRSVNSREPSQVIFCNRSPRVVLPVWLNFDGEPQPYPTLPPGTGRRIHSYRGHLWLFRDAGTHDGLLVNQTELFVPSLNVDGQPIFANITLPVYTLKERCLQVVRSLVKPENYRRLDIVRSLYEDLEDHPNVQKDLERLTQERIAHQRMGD
Chain of pVHL30 (Q15369 17-112 partner limits assumed): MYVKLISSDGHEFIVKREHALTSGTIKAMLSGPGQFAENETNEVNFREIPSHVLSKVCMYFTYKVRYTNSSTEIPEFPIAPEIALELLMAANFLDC
Chain of pVHL30 (Q15370 1-104 partner limits assumed): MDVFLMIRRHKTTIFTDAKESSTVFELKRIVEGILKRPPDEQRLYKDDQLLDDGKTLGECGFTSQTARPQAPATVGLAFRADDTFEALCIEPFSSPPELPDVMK
T1 sequence (P40337 whole entry): as the sequence (P40337 whole entry, canonical isoform) above
T1 sequence (Q15369 17-112 partner limits assumed): as the sequence (Q15369 17-112 partner limits assumed) above
T1 sequence (Q15370 1-104 partner limits assumed): as the sequence (Q15370 1-104 partner limits assumed) above

Regarding `Cc1ncsc1-c1ccc(CNC(=O)[C@@H]2C[C@@H](O)CN2C(=O)[C@@H](NC(=O)COCCOCCOCCOCCOCCOCC(=O)N[C@H](C(=O)N2C[C@H](O)C[C@H]2C(=O)NCc2ccc(-c3scnc3C)cc2)C(C)(C)C)C(C)(C)C)cc1` [CM11, N ^1 ,N ^20-bis((S)-1-((2S,4R)-4-hydroxy-2-((4-(4-methylthiazol-5-yl)benzyl)carbamoyl)pyrrolidin-1-yl)-3,3-dimethyl-1-oxobutan-2-yl)-3,6,9,12,15,18-hexaoxaicosanediamide], in assay [1], the “luciferase activity relative to DMSO control” value was “no increase”. Besides, in assay [2], the “complex formation in SEC with V30CB” value is “Formation of a 2:1 complex”. Further, in assay [3] (25 °C, pVHL30), the ΔG result is given as “–10.4 ± 0.1 kcal mol^−1” and the ΔH entry is “–11.3 ± 0.1 kcal mol^−1”. Besides, in assay [3] (25 °C, pVHL30 (V30CB)), binding was characterised by a dissociation constant (Kd) of 25 ± 3 nM. Moreover, the n in assay [3] (25 °C, stoichiometry of binding, pVHL30 (V30CB)) was 0.866 ± 0.003. In assay [3] (avidity / cooperativity, pVHL30), this molecule gave a α of 7.5.

The values are drawn from publication PMC5635026, “Homo-PROTACs: bivalent small-molecule dimerizers of the VHL E3 ubiquitin ligase to induce self-degradation” (Nature Communications, 2017).
